In patent US11474097B2, “Method of identifying a compound which affects the multienzyme metabolic assembly of glucose metabolism and its association with cell cycle progression in cancer cells” (UNIVERSITY OF MARYLAND, BALTIMORE COUNTY, priority 2018, dated 2022):
pEC50: −log10 of the molar value. Structures can show the parent of a compound that is named as a salt.

Assays:
Format in all cases: cell-based, human
[1] = test system: PFK1-mEGFP clustering in HeLa-T-PFK1G cells; experiment: qHTS PFK1-mEGFP clustering assay with the LOKI library; conditions: for Curve class: LOKI screen; for PFK1-mEGFP clustering when the assay was repeated: repeat of the LOKI assay, FIGS. 8A-8C
Experimental: HeLa-T-PFK1G cells were plated in 1536-well black, clear bottom, low base microwell plates (Aurora Microplates, Inc.) at a density of 400 cells/well in DMEM supplemented with 10% dialyzed FBS, 1% Pen-Strep, and 1 μg/mL doxycycline. The cells were incubated at 37° C., 5% CO2, and 95% humidity for 16 hours. A qHTS assay was scaled to 4 μL volumes in 1536-well format in a semi-automated manner.
Second, the qHTS assay was carried out with the LOKI library (10 mM, 11-point 1:3 intra-plate titration). Again, 23 nL of compounds were transferred by a pintool (Kalypsys) in the final concentration range of 974 pM to 57.5 μM along with DMSO. […] The cells were then incubated overnight with small molecules. Approximately 24 hours later, the cells were fixed with 3.5% paraformaldehyde and nuclei were stained using a 1:1000 dilution of Hoechst dye for ˜20 minutes. Cells were washed and imaged with an INCell Analyzer 2000 or INCell Analyzer 2200 (GE Healthcare Life Sciences) as described above.
Images were processed in the GE Workstation software and analyzed with a multitarget analysis of fluorescence. Top-hat segmentation of the DAPI channel was used to identify nuclei with a minimum area of 100 μm^2 and sensitivity of 40 settings. Multiscale top-hat segmentation of the FITC channel was used to identify cells with a characteristic area of 200 μm^2 and sensitivity of 70 settings. This allowed for the identification of fluorescent cells from the background or dead cells. Following cell segmentation, the same FITC channel was analyzed with multiscale top-hat segmentation to identify PFK1-mEGFP clusters with a size range of 0.2-2 μm^2, number scales of 1, process parameters of 1 pixel, sensitivity of 40, and inclusions in the cytoplasm. A filter of object area, that is, the area of PFK1-mEGFP clusters, below 30 μm^2 and an advanced sensitivity range of 1.5, was also applied. A decision tree thresholding was developed to identify cells with PFK1 clusters with three nodes. The start node required a cell intensity above 110 GL, the second node required a PFK1 cluster count above 1, and the third node required the total area of the PFK1 cluster above 5 μm^2. Ultimately, this allowed for the identification of cluster-positive cells over non-clustering cells. The total number of cells with a total area of PFK1 clusters above 5 μm^2 (most stringent parameter) and the total number of cells with any PFK1 clusters were calculated with the above algorithm and normalized by plate to the 57.5 μM kenpaullone intra-plate control as previously described (Inglese et al., 2006). Assay effectiveness including S:N (the signal to noise ratio) and Z′ (the index of assay quality (Zhang et al., 1999)) were calculated for both parameters using the same respective control. Both parameters were normalized to the average signal of DMSO (vehicle)-treated wells as a zero percent neutral control and the average signal of 57.5 μM kenpaullone-treated wells as maximum PFK1-mEGFP clustering. Cell count based on the number of nuclei was used as a parameter of cytotoxicity, which was also normalized to the average signal of DMSO-treated wells as a zero percent neutral control and the average signal of 57.5 μM […]-treated wells as maximum PFK1-mEGFP clustering. The respective normalized data from each assay plate was corrected using DMSO only treated assay plates at the beginning and end of each library screen. In-house software (http://ncgc.nih.gov/pub/openhts/curvefit/) was used to fit the resulting intra-plate titration data to the standard Hill equation and concentration-response curves were classified by a titration curve as previously described (Southall et al.). Curve fits assignments of class 1.1, 1.2, 2.1 and 2.2s were considered active (i.e., promotion of the PFK1-mEGFP clusters) and visually confirmed.

[2] = test system: PFK1-mEGFP clustering in HeLa-T-PFK1G cells; experiment: High-resolution fluorescence microscopy of PFK1-mEGFP clustering
Experimental: A day before imaging, HeLa-T-PFK1G cells in RPMI1640 supplemented with 10% dialyzed FBS, 200 ug/ml G418 sulfate and 100 ug/ml hygromycin B, were plated in the presence of 1 μg/mL doxycycline to induce the expression of PFK1-mEGFP. On the day of imaging, the cells were washed three times with an imaging solution (20 mM HEPES (pH 7.4), 135 mM NaCl, 5 mM KCl, 1 mM MgCl2, 1.8 mM CaCl2) and 5.6 mM glucose) and allowed to adjust to ambient temperature for ˜45-60 minutes prior to small molecule treatments. Meanwhile, transiently transfected HeLa cells were imaged after being washed with the imaging solution after ˜24 hours following transfection. The cells were then treated with small molecules and incubated at 37° C. for the given time. All samples were imaged at ambient temperature (˜25° C.) with a 60×1.45 NA objective lens (Nikon CFI Plan Apo TIRF) using a Photometrics CoolSnap EZ monochrome CCD camera on a Nikon Eclipse Ti-inverted C2 confocal microscope.
Epifluorescence imaging was carried out using a set of Z488/10-FC cleanup, HC TIRF Dichroic and 525/50-HC emission filter from Chroma Technology. Images were acquired using NIS Elements (Nikon) and images were analyzed using an ImageJ freeware (National Institutes of Health).
Next, the 8 compounds were assessed for their ability to induce PFK1-mEGFP clustering under high-resolution fluorescence microscopy. HeLa-T-PFK1G cells were treated with 57.5 μM for 5 hours (FIGS. 2A and 2B) and 10 μM for 25 hours (FIGS. 2C and 2D). […] Quantitatively, SU9516 induced medium- and large-sized PFK1-mEGFP clustering in 26.6±12% of the cells at 57.5 μM for 5 hours, and in 40.0±16% of cells at 10 μM for 25 hours (see, e.g., FIGS. 2B and 2D, respectively).

[3] = test system: cell cycle progression of HeLa-T-PFK1G cells; experiment: Cell cycle analysis by propidium iodide staining and flow cytometry; conditions: 10 μM, 24 hours
Experimental: FIG. 7A illustrates the effect of SU9516 on the cell cycle progression of HeLa-T-PFK1G cells. Cells received no small molecules or were treated with DMSO or 10 uM SU9516 and incubated for 24 hours. Then, cells were assessed for cell cycle progression by propidium iodide staining. The changes of the average percentage of cells in each cell cycle following incubation with an indicated compound are shown. Error bars represent the standard deviations of at least three trials and statistical significance was determined using student's two-tailed t test. HeLa-T-PFK1G cells were plated in 6-well plates for a confluency of 70-90% in RPMI1640 supplemented with 10% dialyzed FBS in the presence of 1 ug/mL doxycycline. The following day, the cells were treated with SU9516 or DMSO for 24 hours. The cells were then harvested and analyzed for the cell cycle progression as previously described (Crowley et al., 2016). Briefly, hundreds of thousands of cells were removed from 6-well plates using trypsin, washed with 1×PBS (pH 7.4), resuspended in ice-cold PBS and fixed with ice-cold methanol for 20 minutes at 4° C. The cells were then washed and resuspended in the cell cycle buffer, which contains 30 ug/mL propidium iodide and 100 μg/mL RNase A (Thermo Cat # EN0531) in 1×PBS (pH 7.4). After being incubated for at least 45 minutes, flow cytometry was performed with a CyAn ADP (Beckman Coulter) running Summit V 4.00, equipped with a 488 nm laser line and 530/40 and 613/20 emission filters. Using FlowJo (FlowJo, LLC), cell populations were gated based on the expression of PFK1-mEGFP in cells as well as their size and granularity. The cell cycle progression was then assessed by the Dean-Jett-Fox analysis using Cell Cycle platform available in FlowJo (Fox, 1980).

[4] = test system: transiently expressed PFK1-mEGFP in HeLa cells; experiment: PFK1-mEGFP clustering in transiently transfected wild-type HeLa cells; conditions: 57.5 μM, 5 hours
Experimental: A day before transient transfection, wild-type HeLa cells were plated on either glass-bottomed 35 mm petri dishes (MatTek) or 8-well chambers (LabTek) in RPMI 1640 supplemented with 10% dialyzed FBS without antibiotics. The following day, HeLa cells were transfected with PFK1-mEGFP using Lipofectamine 2000 (Invitrogen Cat#11668019) in Opti-MEM I (ThermoFisher Cat#11058-021) and allowed to incubate in a HeraCell CO2 incubator (37° C., 5% CO2, and 95% humidity). Approximately 5 hours later, the medium was exchanged for fresh growth medium and incubated overnight in the CO2 incubator.
A day before imaging, HeLa-T-PFK1G cells in RPMI1640 supplemented with 10% dialyzed FBS, 200 ug/ml G418 sulfate and 100 ug/ml hygromycin B, were plated in the presence of 1 μg/mL doxycycline to induce the expression of PFK1-mEGFP. On the day of imaging, the cells were washed three times with an imaging solution (20 mM HEPES (pH 7.4), 135 mM NaCl, 5 mM KCl, 1 mM MgCl2, 1.8 mM CaCl2) and 5.6 mM glucose) and allowed to adjust to ambient temperature for ˜45-60 minutes prior to small molecule treatments. […]
As a control, PFK1-mEGFP was transiently transfected into wild-type HeLa cells and treated with SU9516. After 5 hours of treatment with 57.5 μM of SU9516, the promotion of medium- and large-sized clusters from small-sized clusters at single-cell levels were monitored (FIG. 4).

[5] = test system: PFK1-mEGFP clustering in HeLa-T-PFK1G cells; experiment: Resveratrol-induced clustering of PFK1-mEGFP (positive control, assay development); conditions: 200-250 μM, three hours
Experimental: Cells were treated with 200-250 μM resveratrol for three hours. Scale bar, 10 μm.

[6] = Table 5, CDK inhibitors that did not induce PFK1-mEGFP clustering
[7] = Table 4, inhibitors of the off-targets of SU9516
[8] = 10 μM, 24 hr, HeLa-T-PFK1G cells

## CN1CCC(c2c(O)cc(O)c3c(=O)cc(-c4ccccc4Cl)oc23)C(O)C1 (stereo in doubt) [NCGC00250401-01]
[1]; [6]
  Curve class: 4

## Cn1cnc2c(NCc3ccccc3)nc(NCCO)nc21 [NCGC00015763-01]
[1]; [6]
  Curve class: 4

## O=C(NC1CCNCC1)c1[nH]ncc1NC(=O)c1c(Cl)cccc1Cl [NCGC00263091-01]
[1]; [6]
  Curve class: −1.3

## CC(=O)c1c(C)c2cnc(Nc3ccc(N4CCNCC4)cn3)nc2n(C2CCCC2)c1=O [NCGC00263129-01, Palbociclib]
[1]; [7]
  Curve class: 2.1

## Cn1c(=O)c(F)c(Nc2ccc(I)cc2F)c2c(=O)n(C[C@@H](O)CO)cnc21 [NCGC00263187-01]
[1]; [6]
  Curve class: −2.4

## CCc1ccc(NC(=O)c2[nH]c(C)c(C(C)=O)c2C)cc1S(=O)(=O)Nc1cccc(C#N)c1 [NCGC00345632-01]
[1]; [6]
  Curve class: −2.1

## CCS(=O)(=O)Nc1ccc2c(c1)/C(=C(/Nc1ccc(CN3CCCCC3)cc1)c1ccccc1)C(=O)N2 [NCGC00346542-01, Hesperadin]
[1]; [7]
  Curve class: 2.1

## CC(C)c1cnn2c(NCc3ccccc3)cc(NCCCCCCN)nc12 [NCGC00346553-01, BS-181]
[1]; [7]
  Curve class: 2.1
[1]
  PFK1-mEGFP clustering when the assay was repeated: did not promote PFK1-mEGFP clustering

## CC(=O)NCC(=O)N1[C@H]2CC[C@H]1c1cc(Nc3ncc(C(F)(F)F)c(NC4CCC4)n3)ccc12 [NCGC00346652-01, PF-03814735]
[1]; [7]
  Curve class: 2.1
[1]
  PFK1-mEGFP clustering when the assay was repeated: induced PFK1-mEGFP clustering

## CC(O)(C#Cc1ccc2c(c1)N(c1nc(N)ncc1Cl)CC2)c1nccs1 (stereo not drawn) [NCGC00346747-02]
[1]; PFK1-mEGFP clustering vs log compound concentration, Table 3 hits
  Curve class: 2.1

## CC(=O)OC1C(C)OC(Oc2c(-c3ccc(O)cc3)oc3cc(O)cc(O)c3c2=O)C(O)C1OC(C)=O (stereo not drawn) [NCGC00346893-01, SL-0101-1]
[1]; [7]
  Curve class: 2.1
[1]; [6]
  Curve class: 4
[1]
  PFK1-mEGFP clustering when the assay was repeated: did not promote PFK1-mEGFP clustering

## C=CCc1cccc(/C=N/NC(=O)CN2CCN(Cc3ccccc3)CC2)c1O [PAC-1]
[2]; [8]
  cell morphology observed: vacuole-type artifact

## COc1ccc2c(c1)/C(=C/c1cnc[nH]1)C(=O)N2 [SU9516, 3-[1-(3H-Imidazol-4-yl)-meth-(Z)-ylidene]-5-methoxy-1,3-dihydro-indol-2-one]
[2]; 10 μM for 25 hours
  percent of cells with medium- and large-sized PFK1-mEGFP clustering: 40.0±16%
[2]; 57.5 μM for 5 hours
  percent of cells with medium- and large-sized PFK1-mEGFP clustering: 26.6±12%
[2]; 57.5 μM for 5 hours and 10 μM for 25 hours
  ability to induce PFK1-mEGFP clustering under high-resolution fluorescence microscopy: capable of inducing PFK1-mEGFP clusters
[2]; Homo sapiens, titration for 25 hours, HeLa-T-PFK1G cells, read-out: EC50 with respect to PFK1-mEGFP clustering
  pEC50: 5.17
[3]; 18.9%±[…] without compound
  population of cells in the G2 phase: 45.6%±1.9%
[3]; 21.5%±7.2% without compound
  population of cells in the S phase: 4.2%±2.4%
[3]; 54.7%±5.7% without compound, no significant change
  population of cells in the G1 phase: 48.4%±2.7%
[4]
  promotion of medium- and large-sized PFK1-mEGFP clusters: capable of promoting PFK1-mEGFP clusters

## Clc1ccc(C(c2ccc(Cl)cc2)n2cc[n+](CC(OCc3ccc(Cl)cc3Cl)c3ccc(Cl)cc3Cl)c2)cc1 (stereo not drawn) [calmidazolium chloride, Calmidazolium chloride]
[2]; [8]
  cell morphology observed: vacuole-type artifact

## CN1CCC[C@@H]1CCO[C@](C)(c1ccccc1)c1ccc(Cl)cc1 [clemastine fumarate, Clemastine fumarate]
[2]; 57.5 μM, 6 hr, HeLa-T-PFK1G cells
  cell morphology observed: protein localization and cell death

## Oc1ccc(C=Cc2cc(O)cc(O)c2)cc1 [resveratrol]
[5]
  percent of cells exhibiting medium- or large-sized clusters in the cytoplasm: 80-90%
